Data taken from PMC9441481, “Risk assessment and molecular mechanism study of drug-drug interactions between rivaroxaban and tyrosine kinase inhibitors mediated by CYP2J2/3A4 and BCRP/P-gp” (Frontiers in Pharmacology, 2022).
Entries after “also recorded” stand apart in the source; their conditions may differ. Read-outs that look alike come from different tables or passages of the source.

Legend:
CYP2J2 and CYP3A4 = settings: predicted increase in rivaroxaban exposure from CYP2J2 and CYP3A4 inhibition
From the text: Kinetic constants were included in the mechanistic static model to explore reversible inhibition and the TDI. […] In the present study, this model was designed to explore the contributions of enzyme inhibition in the prediction of DDI risk. The area under the curve ratio (AUC ratio/AUCR) in the presence of a pharmacokinetic DDI was used as the index, as described by Eq. 2.

[1] = Rivaroxaban pharmacokinetics in rats, oral administration with or without TKIs; format: in vivo, Wistar rats
Procedure: (§1) The LC-MS/MS method was used to quantitatively determine rivaroxaban for cell and animal experiments. LC-MS/MS analysis was performed using an API 3200 triple-quadrupole mass spectrometer (Applied Biosystems, Concord, Ontario, Canada) and an Agilent LC system Agilent HP1200 (Agilent Technology Inc. CA, United States). The column was a Hypersil ODS-BP column (150 mm × 2.1 mm, 5 μm; Dalian Elite Analytical Instruments Co. Ltd. China). […] The flow rate of the mobile phase was 0.4 ml/min. The mobile phase contained acetonitrile and water with 0.2% (v/v) formic acid at 65:35 (v/v) for rivaroxaban in cell experiments. The determination of rivaroxaban in the blood was achieved by gradient elution methods with a mobile phase of acetonitrile (A) and pure water with 10 mM ammonium acetate (B).
(§2) To further investigate the DDI risk between rivaroxaban and the TKIs, the pharmacokinetic parameters were measured in Wistar rats (male, 160–200 g). The experiments were reviewed and approved by the Experimental Animal Centre of Dalian Medical University. […] All rats had free access to food and water and were fed adaptively for 7 days. […] Thirty-six rats were divided into six groups randomly. […] After centrifugation, the plasma proteins were precipitated using acetonitrile, followed by vortexing and centrifugation.
(§3) All pharmacokinetic parameters in the present study were analyzed using the Drug and Statistics software (DAS 2.0, Windows). In the bidirectional experiments, the apparent permeability values (Papp), efflux ratio (ER), and net flux ratio were calculated by Eqs. […] The transport of rivaroxaban was assessed to determine apparent Michaelis–Menten constants (Km,app). […] AP is transported from the apical to the basolateral side, and BL is transported from the basolateral to the apical side. Net flux ratiomax is the maximal effect, C is the concentration of rivaroxaban, and h is the Hill coefficient of the sigmoid model.

P-gp [2] = target: T1, P-gp (Homo sapiens, UniProt P08183); settings: MDR1-MDCK cells, TKI 5 μM
T1 sequence (P08183 whole entry): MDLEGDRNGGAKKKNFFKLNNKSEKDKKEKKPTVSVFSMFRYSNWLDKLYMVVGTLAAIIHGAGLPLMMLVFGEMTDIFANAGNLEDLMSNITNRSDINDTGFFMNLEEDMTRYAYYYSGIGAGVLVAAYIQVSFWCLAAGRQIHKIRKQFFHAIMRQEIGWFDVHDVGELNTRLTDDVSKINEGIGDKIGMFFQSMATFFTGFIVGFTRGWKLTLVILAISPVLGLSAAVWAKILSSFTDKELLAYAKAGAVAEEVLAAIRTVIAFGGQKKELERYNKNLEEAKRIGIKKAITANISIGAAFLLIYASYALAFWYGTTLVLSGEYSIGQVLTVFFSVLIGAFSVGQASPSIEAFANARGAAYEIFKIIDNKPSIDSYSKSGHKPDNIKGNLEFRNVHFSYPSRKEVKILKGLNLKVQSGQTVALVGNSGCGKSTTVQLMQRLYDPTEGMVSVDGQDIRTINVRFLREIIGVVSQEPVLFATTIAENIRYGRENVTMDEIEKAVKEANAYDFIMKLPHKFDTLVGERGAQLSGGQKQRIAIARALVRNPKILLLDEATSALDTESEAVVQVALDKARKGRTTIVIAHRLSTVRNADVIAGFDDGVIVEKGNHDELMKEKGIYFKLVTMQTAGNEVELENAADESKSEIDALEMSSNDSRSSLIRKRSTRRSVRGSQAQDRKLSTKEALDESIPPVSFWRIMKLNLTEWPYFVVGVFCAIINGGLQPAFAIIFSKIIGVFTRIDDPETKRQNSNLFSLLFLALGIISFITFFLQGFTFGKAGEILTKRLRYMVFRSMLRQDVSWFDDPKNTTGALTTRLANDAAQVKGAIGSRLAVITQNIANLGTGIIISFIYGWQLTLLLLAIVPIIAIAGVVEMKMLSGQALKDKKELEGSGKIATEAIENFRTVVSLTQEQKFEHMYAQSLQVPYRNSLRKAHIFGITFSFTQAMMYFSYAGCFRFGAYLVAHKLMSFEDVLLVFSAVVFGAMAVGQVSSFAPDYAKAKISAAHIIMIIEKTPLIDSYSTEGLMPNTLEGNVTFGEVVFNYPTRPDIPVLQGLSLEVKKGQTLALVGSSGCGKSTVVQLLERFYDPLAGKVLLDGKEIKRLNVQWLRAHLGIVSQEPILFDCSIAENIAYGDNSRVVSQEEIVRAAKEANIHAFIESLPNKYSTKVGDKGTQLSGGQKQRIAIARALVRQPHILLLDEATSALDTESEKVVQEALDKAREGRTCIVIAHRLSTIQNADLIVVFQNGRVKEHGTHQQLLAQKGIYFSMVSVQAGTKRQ
Procedure: Mock-MDCK and MDR1-MDCK cells were seeded in six-well plates and grown to 80% confluency.

[3] = patients with solid tumors; ref Gschwind et al. (2005), Sparano et al. (2009), Di Gion et al. (2011), Scheffler et al. (2011); read-out: I (Cmax of patients with solid tumors); cited from earlier work
[4] = system: rivaroxaban metabolism in HLM; assay: Inhibition of rivaroxaban metabolism in HLM incubation; format: in vitro ADME; settings: human, pooled human liver microsomes, probe rivaroxaban (concentration chosen from Km, 22.81 μM for HLM), HLM 0.3 mg/mL, main metabolite formation, five independent experiments, read-out: IC50 of TKI inhibition of rivaroxaban metabolism, HLM
Procedure: The formation of the main metabolite of rivaroxaban in the CYP inhibition assays was quantitatively determined using HPLC. The mobile phase consisted of 60% methanol (A pump) and 40% pure water with 0.2% formic acid (B pump) with isocratic elution.
The inhibitory effect of the TKIs on the metabolism of rivaroxaban in recombined P450 isoforms and HLM incubations was compared by quantifiably detecting the production of the major metabolite using HPLC. The concentrations of HLM, CYP2J2, and CYP3A4 were 0.3, 0.4, and 0.6 mg mL^−1, respectively. […] Briefly, after 5-min preincubation of potential inhibitors with isoforms, NADPH was added to initiate the reaction. The reaction mixture was incubated at 37°C for 60 min, and ice acetonitrile was used for terminating the reaction. The ratio of major metabolite production of rivaroxaban in the TKI incubation group to that obtained in the control group represents the inhibitory activity.
To explore the inhibitory effects of the three TKIs on rivaroxaban metabolism, three concentrations of TKIs (1, 10, and 100 μM) were used to perform the in vitro enzyme incubations. The ratio of the rivaroxaban main metabolite formation in the incubation with the TKIs to that without inhibitors represented the inhibitory activity.
The IC50 values were obtained by nonlinear fitting of the TKI concentration and the remaining enzyme activity.

BCRP = target: T2, BCRP (Homo sapiens, UniProt Q9UNQ0); assay: in vitro
T2 sequence (Q9UNQ0 1-655): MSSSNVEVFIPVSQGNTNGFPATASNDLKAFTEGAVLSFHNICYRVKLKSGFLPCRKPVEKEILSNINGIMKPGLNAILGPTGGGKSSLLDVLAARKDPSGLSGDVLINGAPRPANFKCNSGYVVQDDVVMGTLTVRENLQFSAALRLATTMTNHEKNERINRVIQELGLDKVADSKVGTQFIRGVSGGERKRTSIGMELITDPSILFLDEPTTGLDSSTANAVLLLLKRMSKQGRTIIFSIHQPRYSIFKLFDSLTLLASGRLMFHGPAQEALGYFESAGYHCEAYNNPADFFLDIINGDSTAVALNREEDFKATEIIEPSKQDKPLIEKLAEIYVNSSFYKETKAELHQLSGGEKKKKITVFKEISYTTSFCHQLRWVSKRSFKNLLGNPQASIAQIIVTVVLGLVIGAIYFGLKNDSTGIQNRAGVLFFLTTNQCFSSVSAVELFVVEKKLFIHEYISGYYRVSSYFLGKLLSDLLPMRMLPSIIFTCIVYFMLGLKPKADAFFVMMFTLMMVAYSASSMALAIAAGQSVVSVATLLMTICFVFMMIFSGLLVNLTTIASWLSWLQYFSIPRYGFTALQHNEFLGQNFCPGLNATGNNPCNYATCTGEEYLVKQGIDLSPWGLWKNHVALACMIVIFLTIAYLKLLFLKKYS
Procedure: as §1
(§4) Mock-MDCK, MDR1-MDCK, and ABCG2-MDCK cells were seeded in 24-well transwell inserts (0.33 cm^2, 0.4 μm) at a density of 2.5 × 10^5 cells/ml, and cells were allowed to culture for 3–5 days to form cell monolayers. The Millicell-ERS system was used to measure the TEER (Trans Epithelial Electric Resistance) values of the monolayers. […] Briefly, the monolayer was washed gently using 37°C HBSS (pH 7.4) and preincubated with HBSS for 10 min at 37°C. Then, various concentrations of TKIs were added to the HBSS on either the basolateral (total volume of 800 μl) or apical (total volume of 200 μl) side of the monolayers, and the cells in the transwell inserts were allowed to further incubate at 37°C for 2 h. At last, a 100-μl solution was taken from the other side for quantitative analysis by LC-MS/MS.
as §3

P-gp [5] = target: T1, P-gp; assay: in vitro
Procedure: as §1, §4, §3

[6] = Rivaroxaban pharmacokinetics in rats, intravenous administration with or without imatinib; format: in vivo; settings: male, Wistar, rat, plasma, 0.4 mg/kg, i.v.
Procedure: as §1, §2, §3

[7] = system: pooled human liver microsomes (HLM); parameters: method as in Zhao et al., 2022; settings: ref Zhao et al., 2022; read-out: Km of rivaroxaban metabolism, HLM; cited from earlier work
recombinant human CYP2J2 = target: T3, recombinant human CYP2J2 (Homo sapiens, UniProt P51589); parameters: method as in Zhao et al., 2022; settings: ref Zhao et al., 2022, cited from earlier work
T3 sequence (P51589 1-502): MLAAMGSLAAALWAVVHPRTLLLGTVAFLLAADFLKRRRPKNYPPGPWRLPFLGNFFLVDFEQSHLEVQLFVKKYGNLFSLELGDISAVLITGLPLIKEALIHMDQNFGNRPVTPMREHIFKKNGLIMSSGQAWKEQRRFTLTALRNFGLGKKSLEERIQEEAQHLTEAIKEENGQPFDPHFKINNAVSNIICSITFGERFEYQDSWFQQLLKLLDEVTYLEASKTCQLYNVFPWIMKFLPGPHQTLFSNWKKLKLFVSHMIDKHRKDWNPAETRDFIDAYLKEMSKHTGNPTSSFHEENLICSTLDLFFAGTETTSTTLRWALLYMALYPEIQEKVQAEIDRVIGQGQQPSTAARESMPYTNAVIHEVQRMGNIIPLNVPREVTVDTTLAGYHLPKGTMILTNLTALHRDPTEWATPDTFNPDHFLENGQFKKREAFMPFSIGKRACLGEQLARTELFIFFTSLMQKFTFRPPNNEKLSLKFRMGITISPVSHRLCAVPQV

recombinant human CYP3A4 = recombinant human CYP3A4 (Homo sapiens, UniProt P08684); parameters: method as in Zhao et al., 2022; settings: ref Zhao et al., 2022, cited from earlier work
recombinant human CYP3A4, sequence (P08684 whole entry): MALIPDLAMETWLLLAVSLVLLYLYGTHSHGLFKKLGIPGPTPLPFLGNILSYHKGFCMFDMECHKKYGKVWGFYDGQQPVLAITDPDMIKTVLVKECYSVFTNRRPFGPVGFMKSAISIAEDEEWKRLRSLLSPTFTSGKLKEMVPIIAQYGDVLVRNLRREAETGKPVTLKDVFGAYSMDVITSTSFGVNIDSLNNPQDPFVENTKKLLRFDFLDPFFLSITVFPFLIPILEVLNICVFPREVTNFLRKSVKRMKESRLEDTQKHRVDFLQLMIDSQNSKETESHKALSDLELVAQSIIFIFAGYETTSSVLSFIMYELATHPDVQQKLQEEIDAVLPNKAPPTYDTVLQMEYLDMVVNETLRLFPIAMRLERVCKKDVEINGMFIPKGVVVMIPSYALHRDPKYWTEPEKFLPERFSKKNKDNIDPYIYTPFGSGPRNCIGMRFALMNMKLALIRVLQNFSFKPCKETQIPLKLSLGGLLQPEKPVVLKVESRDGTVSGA

[8] = parameters: method as in Mueck et al., 2013; settings: ref Mueck et al., 2013; cited from earlier work
[9] = parameters: method as in Zheng et al., 2019; settings: ref Zheng et al., 2019; cited from earlier work
[10] = parameters: method as in Chong et al., 2020; settings: rats; ref Chong et al., 2020; cited from earlier work
[11] = male, Wistar, rat, plasma, po, rivaroxaban 2.1 mg/kg, n = 5

## COc1cc2ncnc(Nc3ccc(F)c(Cl)c3)c2cc1OCCCN1CCOCC1 [Gefitinib]
CYP2J2 and CYP3A4
  AUC increase (%): 6–11%
CYP2J2 and CYP3A4; listed as gefitinib
  AUC increase (%): not to cause a significant change
[1]; p.o.
  effect on rivaroxaban exposure / pharmacokinetics in vivo: almost did not affect; also recorded: did not show obvious changes
P-gp [2]
  intracellular fluorescence intensity of rhodamine 123 (fluorescence imaging): slight increase
[3]
  Cmax: 190 to 356 nM

## Cc1ccc(NC(=O)c2ccc(CN3CCN(C)CC3)cc2)cc1Nc1nccc(-c2cccnc2)n1 [Imatinib]
[4]
  IC50 at 60 min: 1.7 ± 0.119 µM
BCRP; human, pH 7.4
  inhibition at 2 h, 5 µM: > 50%
P-gp [5]; human, pH 7.4
  inhibition at 2 h: ~20%
P-gp [2]
  intracellular fluorescence intensity of rhodamine 123 (fluorescence imaging): significantly increased
[3]
  Cmax: 4170 to 9280 nM

## O=C(NC[C@H]1CN(c2ccc(N3CCOCC3=O)cc2)C(=O)O1)c1ccc(Cl)s1 [Rivaroxaban]
BCRP; ABCG2-MDCK cells
  Net flux ratio max, BCRP: 4.868 fold
BCRP; human, pH 7.4
  Km at 2 h: 3.46 µM
BCRP; substrate identification
  net flux ratio, transportation mediated by BCRP: more than 2 folds
P-gp [5]; MDR1-MDCK cells
  Net flux ratio max, P-gp: 10.300 fold
P-gp [5]; human, MDCK, pH 7.4
  Km at 2 h: 8.42 µM
P-gp [5]; substrate identification
  net flux ratio, transportation mediated by P-gp: more than 2 folds
[1]; [11]
  AUC(0-t): 1550 ± 268 ng·h/mL
  Cmax: 130 ± 22.7 ng/mL
  Tmax: 4 h
[6]; n = 5
  AUC(0-t): 4650 ± 446 ng·h/mL
  Cmax: 3940 ± 780 ng/mL
[6]; n = 5, read-out: CL of rivaroxaban (converted)
  clearance: 1.38 mL/min/kg
[6]; n = 5, read-out: t1/2 of rivaroxaban (converted)
  half-life: 2.44 ± 0.757 h
[7]
  Km: 22.8 µM
Recombinant human CYP2J2; input of static model
  fraction of rivaroxaban metabolized by CYP2J2: 0.95
Recombinant human CYP2J2
  catalytic efficiency of CYP2J2 relative to CYP3A4: approximately 39 fold
Recombinant human CYP2J2; read-out: Km of rivaroxaban metabolism, CYP2J2
  Km: 19.4 µM
Recombinant human CYP3A4; input of static model
  fraction of rivaroxaban metabolized by CYP3A4: 0.025
Recombinant human CYP3A4; read-out: Km of rivaroxaban metabolism, CYP3A4
  Km: 47 µM
[8]
  dose eliminated via hydrolysis of the amide bonds: approximately 14%

## CCN(CC)CCNC(=O)c1c(C)[nH]c(/C=C2\C(=O)Nc3ccc(F)cc32)c1C [Sunitinib]
[4]
  IC50 at 60 min: 84.2 ± 7.34 µM
CYP2J2 and CYP3A4
  AUC increase (%): 2%
CYP2J2 and CYP3A4; listed as sunitinib
  AUC increase (%): not to cause a significant change
[3]
  Cmax: 63 to 69.5 nM

## CCOC(=O)[C@H](CCc1ccccc1)N[C@@H](C)C(=O)N1CCC[C@H]1C(=O)O [enalapril]
[9]
  increase of the AUC value of rivaroxaban: 20%
  increase of the Cmax value of rivaroxaban: 20%

## CCCSc1nc(N[C@@H]2C[C@H]2c2ccc(F)c(F)c2)c2nnn([C@@H]3C[C@H](OCCO)[C@@H](O)[C@H]3O)c2n1 [ticagrelor]
[10]
  increase of the AUC of rivaroxaban: two folds
